Results published in publication PMC3527430, “Total Synthesis of Septocylindrin B and C-Terminus Modified Analogues” (PLoS ONE, 2012).
Like-named read-outs stand apart in the source and are kept apart here. Square brackets hold non-standard residues; d marks the D form. Peptide text beside a SMILES is read from it. * marks the point of attachment. X2 = CCCCCCNC[C@H](Cc1ccccc1)N*; X3 = OCCCCCNC[C@H](Cc1ccccc1)N*; X1 = OCCNC[C@H](Cc1ccccc1)N*; Aib = CC(C)(N)C(=O)O

Legend:
Bacillus cereus = type: cell-based
Experimental: (§1) All these peptides were tested for their antibacterial activity using standard minimal inhibitory concentration (MIC) assays exactly as described in Mattheus et al. […] They are identical except for the glutamine residues, which are replaced with methyl protected glutamic acid residues in ABCD-Phaol. Although ABCD-Phaol should be a functionally reliable model of its natural counterpart, the difference in activity can only be explained by the different interaction with the membrane of the amino acid residue side chains. The amide interaction positively influences activity, so the conversion of Glu(OMe) to Gln improves the activity.

Bacillus subtilis = type: cell-based
Experimental: as §1

Enterococcus faecalis = type: cell-based
Experimental: as §1

Staphylococcus aureus [1] = type: cell-based
Experimental: as §1

[2] = tested on: Bacillus cereus, Bacillus subtilis, Enterococcus faecalis, Staphylococcus aureus; experiment: Antibacterial activity, MIC assays, overall statement on the bacteria tested; type: cell-based; conditions: standard MIC assays; four bacteria tested
Experimental: as §1

Staphylococcus aureus [3] = conditions: natural Septocylindrin B; ref [1]; cited from earlier work
Description: Table 1 Antibacterial activity (MIC, µM) of Septocylindrin B and selected analogues. ^a | column: Staphylococcus aureus

[4] = standard MIC assay as described in Mattheus et al. [13], cell holds only footnote mark d
[5] = standard MIC assay as described in Mattheus et al. [13]

Compound | Antibacterial activity (MIC) Bacillus cereus (Bacillus cereus) | Antibacterial activity (MIC) Bacillus subtilis (Bacillus subtilis) | Antibacterial activity (MIC) Enterococcus faecalis (Enterococcus faecalis) | Antibacterial activity (MIC) Staphylococcus aureus (Staphylococcus aureus [1]; [4]) | Antibacterial activity (MIC) Staphylococcus aureus (Staphylococcus aureus [1]) | Antibacterial activity (MIC) Bacillus cereus (Bacillus cereus; [5]) | Antibacterial activity (MIC) Bacillus subtilis (Bacillus subtilis; [5]) | Antibacterial activity (MIC) Enterococcus faecalis (Enterococcus faecalis; [5]) | Antibacterial activity, result in words [2] | Antibacterial activity (MIC) Staphylococcus aureus (Staphylococcus aureus [3])
COC(=O)CC[C@H](NC(=O)[C@H](C)NC(=O)C(C)(C)NC(=O)[C@H](C)NC(=O)C(C)(C)NC(=O)[C@@H]1CCCN1C(=O)C(C)(C)NC(C)=O)C(=O)NC(C)(C)C(=O)N[C@H](C(=O)NC(C)(C)C(=O)NCC(=O)N[C@@H](CC(C)C)C(=O)NC(C)(C)C(=O)N1CCC[C@H]1C(=O)N[C@H](C(=O)NC(C)(C)C(=O)NC(C)(C)C(=O)N[C@@H](CCC(=O)OC)C(=O)N[C@@H](CCC(=O)OC)C(=O)N[C@H](CNCCCCCO)Cc1ccccc1)C(C)C)C(C)C [ABCD-Phaol-N5O, Ac-Aib1-Pro2-Aib3-Ala4-Aib5-Ala6-Glu(OMe)7-Aib8-Val9-Aib10-Gly11-Leu12-Aib13-Pro14-Val15-Aib16-Aib17-Glu(OMe)18-Glu(OMe)19-Phaol20-N5O] (Ac-[Aib]P[Aib]A[Aib]AE(OMe)[Aib]V[Aib]GL[Aib]PV[Aib][Aib]E(OMe)E(OMe)-X3) | 50 µM | >100 µM | 1.5 µM | ^d (A reduced growth is clearly visible, but no MIC end point ≤100 µM) |  |  |  |  |  | 
CCCCCCNC[C@H](Cc1ccccc1)NC(=O)[C@H](CCC(=O)OC)NC(=O)[C@H](CCC(=O)OC)NC(=O)C(C)(C)NC(=O)C(C)(C)NC(=O)[C@@H](NC(=O)[C@@H]1CCCN1C(=O)C(C)(C)NC(=O)[C@H](CC(C)C)NC(=O)CNC(=O)C(C)(C)NC(=O)[C@@H](NC(=O)C(C)(C)NC(=O)[C@H](CCC(=O)OC)NC(=O)[C@H](C)NC(=O)C(C)(C)NC(=O)[C@H](C)NC(=O)C(C)(C)NC(=O)[C@@H]1CCCN1C(=O)C(C)(C)NC(C)=O)C(C)C)C(C)C [ABCD-Phaol-N6, Ac-Aib1-Pro2-Aib3-Ala4-Aib5-Ala6-Glu(OMe)7-Aib8-Val9-Aib10-Gly11-Leu12-Aib13-Pro14-Val15-Aib16-Aib17-Glu(OMe)18-Glu(OMe)19-Phaol20-N6] (Ac-[Aib]P[Aib]A[Aib]AE(OMe)[Aib]V[Aib]GL[Aib]PV[Aib][Aib]E(OMe)E(OMe)-X2) | >100 µM | >100 µM | 25 µM |  | >100 µM |  |  |  |  | 
COC(=O)CC[C@H](NC(=O)[C@H](C)NC(=O)C(C)(C)NC(=O)[C@H](C)NC(=O)C(C)(C)NC(=O)[C@@H]1CCCN1C(=O)C(C)(C)NC(C)=O)C(=O)NC(C)(C)C(=O)N[C@H](C(=O)NC(C)(C)C(=O)NCC(=O)N[C@@H](CC(C)C)C(=O)NC(C)(C)C(=O)N1CCC[C@H]1C(=O)N[C@H](C(=O)NC(C)(C)C(=O)NC(C)(C)C(=O)N[C@@H](CCC(=O)OC)C(=O)N[C@@H](CCC(=O)OC)C(=O)N[C@H](CNCCO)Cc1ccccc1)C(C)C)C(C)C [ABCD-Phaol] (Ac-[Aib]P[Aib]A[Aib]AE(OMe)[Aib]V[Aib]GL[Aib]PV[Aib][Aib]E(OMe)E(OMe)-X1) | >50 µM | >50 µM | 6 µM |  | >50 µM |  |  |  |  | 
Ac-Aib1-Pro2-Aib3-Ala4-Aib5-Ala6-Glu(OMe)7-Aib8-Val9-Aib10-Gly11-Leu12-Aib13-Pro14-Val15-Aib16-Aib17-Glu(OMe)18-Glu(OMe)19- Phe20-ethanolamine [ABCD-Phe-ethanolamine] |  |  |  | ^d (A reduced growth is clearly visible, but no MIC end point ≤100 µM) |  | 100 µM | >100 µM | 6 µM |  | 
CC(=O)NC(C)(C)C(=O)N1CCC[C@H]1C(=O)NC(C)(C)C(=O)N[C@@H](C)C(=O)NC(C)(C)C(=O)N[C@@H](C)C(=O)N[C@@H](CCC(N)=O)C(=O)NC(C)(C)C(=O)N[C@H](C(=O)NC(C)(C)C(=O)NCC(=O)N[C@@H](CC(C)C)C(=O)NC(C)(C)C(=O)N1CCC[C@H]1C(=O)N[C@H](C(=O)NC(C)(C)C(=O)NC(C)(C)C(=O)N[C@@H](CCC(N)=O)C(=O)N[C@@H](CCC(N)=O)C(=O)N[C@H](CNCCO)Cc1ccccc1)C(C)C)C(C)C [Septocylindrin B synthetic] (Ac-[Aib]P[Aib]A[Aib]AQ[Aib]V[Aib]GL[Aib]PV[Aib][Aib]QQ-X1) | 6.25 µM | 12.5 µM | 6.25 µM |  | 12.5 µM |  |  |  | activity against all four bacteria tested | 8 µM
